Source: patent US5831026A, “Process for purifying factor VIII” (Pharmacia & Upjohn AB, priority 1994, dated 1998)

Tests used:
[1] = system: metal-dependent proteases; experiment: Protease assay with resorufin-labeled casein in harvest solution (conditioned medium); assay type: biochemical, Chinese Hamster; conditions: for Mean absorbance corrected: blank subtracted
Method: The method chosen was a protease assay with casein which was resorufin-labeled. By treatment with proteases, resorufin-labeled peptides are released from the casein. The concentration of these resorufin-labeled peptides in the supernatant is a measure of the proteolytic activity present. The test sample was incubated at 37° C. for a period of time which was dependent upon the sample at issue. The absorption wave-length chosen was 574 run throughout the tests. […]
Preincubation of the conditioned medium with or without EDTA was conducted at 37° C. for 2 h. After the addition of substrate, further incubation was carried out for 17 h. The pH in the incubation mixture was 7.5.
Absorbance corrected, refers to the absorption after subtraction of the blank value.
Conditioned medium (containing human serum albumin) was clarified and imidazole subsequently added in an amount ranging from 3.6 mM up to 360 mM.
Conditioned medium (containing human serum albumin) was clarified and histidine subsequently added in an amount ranging from 0.14 mM to 13.6 mM.

factor VIII = experiment: Activity of factor VIII after addition of complexing agent to eluted solution from SP Sepharose FF, COATEST chromogenic assay; assay type: biochemical; conditions: Example 8; for Factor VIII activity (%): 0 h without additive = 100
Method: Tests without EDTA present were carried out for comparison.
(§1) A conditioned medium (containing human serum albumin) from a different harvest than the previous Examples, was clarified and buffered with NH4 Ac. […] After elution, various amounts of EDTA were added to the resulting solution. Tests without EDTA present were carried out for comparison. The procoagulant activity of factor VIII was determined after storage at ambient temperature for up to 246 hours, in accordance to the procedure described in Example 5.
as §1, with “28” for “246”
A conditioned medium (containing human serum albumin) from a different harvest than the previous Examples, was clarified and buffered with NH4 Ac. The resulting solution was loaded onto a column containing SP SEPHAROSE® FF. This cation-exchange chromatography step was performed at 10° C. […] After elution, EDTA or 1,10-Phenanthroline were added to the resulting solution.

[2] = 5 mM Phenanthroline, incubation 4.5 h ambient
[3] = 5 mM Phenanthroline, incubation 7.5 h ambient
[4] = 5 mM Phenanthroline, incubation 24 h ambient
[5] = 11 mM Phenanthroline, incubation 4.5 h ambient
[6] = 11 mM Phenanthroline, incubation 7.5 h ambient
[7] = 11 mM Phenanthroline, incubation 24 h ambient

Structure (SMILES): N[C@@H](Cc1c[nH]cn1)C(=O)O [Histidine, L-histidine]
- Mean absorbance ([1]; 0.14 mM histidine): 2561
- Protease activity (%) ([1]; 0.14 mM histidine): 79%
- Mean absorbance corrected ([1]; 0.14 mM histidine): 1591
- Mean absorbance ([1]; 0.7 mM histidine): 2857
- Protease activity (%) ([1]; 0.7 mM histidine): 94%
- Mean absorbance corrected ([1]; 0.7 mM histidine): 1887
- Mean absorbance ([1]; 1.4 mM histidine): 3153
- Protease activity (%) ([1]; 1.4 mM histidine): 108%
- Mean absorbance corrected ([1]; 1.4 mM histidine): 2183
- Mean absorbance ([1]; 7 mM histidine): 1495
- Protease activity (%) ([1]; 7 mM histidine): 26%
- Mean absorbance corrected ([1]; 7 mM histidine): 525
- Mean absorbance ([1]; 13.6 mM histidine): 1684
- Protease activity (%) ([1]; 13.6 mM histidine): 35%
- Mean absorbance corrected ([1]; 13.6 mM histidine): 714

Structure (SMILES): c1cnc2c(c1)ccc1cccnc12 [Phenanthroline, 1,10-Phenanthroline]
- Factor VIII activity (IU/ml) (factor VIII; [2]): 750 IU/ml
- Factor VIII activity (%) (factor VIII; [2]): 84%
- Factor VIII activity (IU/ml) (factor VIII; [3]): 964 IU/ml
- Factor VIII activity (%) (factor VIII; [3]): 109%
- Factor VIII activity (IU/ml) (factor VIII; [4]): 933 IU/ml
- Factor VIII activity (%) (factor VIII; [4]): 105%
- Factor VIII activity (IU/ml) (factor VIII; [5]): 869 IU/ml
- Factor VIII activity (%) (factor VIII; [5]): 98%
- Factor VIII activity (IU/ml) (factor VIII; [6]): 996 IU/ml
- Factor VIII activity (%) (factor VIII; [6]): 112%
- Factor VIII activity (IU/ml) (factor VIII; [7]): 916 IU/ml
- Factor VIII activity (%) (factor VIII; [7]): 103%

Structure (SMILES): c1c[nH]cn1 [imidazole]
- Mean absorbance ([1]; 3.6 mM imidazole): 2891
- Protease activity (%) ([1]; 3.6 mM imidazole): 95%
- Mean absorbance corrected ([1]; 3.6 mM imidazole): 1921
- Mean absorbance ([1]; 18 mM imidazole): 2985
- Protease activity (%) ([1]; 18 mM imidazole): 100%
- Mean absorbance corrected ([1]; 18 mM imidazole): 2015
- Mean absorbance ([1]; 36 mM imidazole): 3190
- Protease activity (%) ([1]; 36 mM imidazole): 110%
- Mean absorbance corrected ([1]; 36 mM imidazole): 2220
- Mean absorbance ([1]; 180 mM imidazole): 1258
- Protease activity (%) ([1]; 180 mM imidazole): 14%
- Mean absorbance corrected ([1]; 180 mM imidazole): 288
- Mean absorbance ([1]; 360 mM imidazole): 1143
- Protease activity (%) ([1]; 360 mM imidazole): 9%
- Mean absorbance corrected ([1]; 360 mM imidazole): 173
